Measurements taken from publication doi:10.1101/2025.10.06.680810v1 (biorxiv, 2025).

Target: NLRP3 (purified) (Homo sapiens, UniProt Q96P20, K138A/K142A/R137C)
Assay: fluorescence polarization displacement
Format: binding

Chain of NLRP3 (purified) (Q96P20 136-1034 R137C/K138A/K142A): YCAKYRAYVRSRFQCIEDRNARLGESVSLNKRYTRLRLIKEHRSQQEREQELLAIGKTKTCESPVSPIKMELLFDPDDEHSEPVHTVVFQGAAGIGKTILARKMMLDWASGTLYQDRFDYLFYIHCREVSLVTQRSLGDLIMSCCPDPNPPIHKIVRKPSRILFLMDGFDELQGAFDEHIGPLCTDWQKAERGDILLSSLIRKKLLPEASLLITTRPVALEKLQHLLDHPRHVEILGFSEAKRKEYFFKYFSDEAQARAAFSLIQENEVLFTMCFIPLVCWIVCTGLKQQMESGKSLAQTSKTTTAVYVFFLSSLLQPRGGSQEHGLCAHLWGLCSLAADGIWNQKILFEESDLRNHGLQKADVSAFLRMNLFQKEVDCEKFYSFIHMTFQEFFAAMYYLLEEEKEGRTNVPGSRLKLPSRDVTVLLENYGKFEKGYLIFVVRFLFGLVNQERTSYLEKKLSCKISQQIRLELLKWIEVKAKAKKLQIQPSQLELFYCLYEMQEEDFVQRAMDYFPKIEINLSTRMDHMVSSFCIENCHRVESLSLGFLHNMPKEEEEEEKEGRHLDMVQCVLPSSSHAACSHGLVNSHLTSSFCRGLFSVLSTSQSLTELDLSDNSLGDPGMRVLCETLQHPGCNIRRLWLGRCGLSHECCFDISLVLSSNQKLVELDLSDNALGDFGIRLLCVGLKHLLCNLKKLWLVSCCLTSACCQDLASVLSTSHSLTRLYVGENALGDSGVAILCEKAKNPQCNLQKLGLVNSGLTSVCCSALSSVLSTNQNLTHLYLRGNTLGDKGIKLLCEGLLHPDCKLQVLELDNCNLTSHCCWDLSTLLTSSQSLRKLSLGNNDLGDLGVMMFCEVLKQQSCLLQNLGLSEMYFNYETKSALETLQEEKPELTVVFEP

## O=C(CN1C[C@@H](C(F)(F)F)c2cc(I)ccc2C1=O)Nc1ncc(F)cn1 [TN-783, N-(5-fluoropyrimidin-2-yl)-2-[(4s)-6-iodo-1-oxo-4-(trifluoromethyl)-3,4-dihydroisoquinolin-2-yl]acetamide]
  IC50: 19.3 ± 2.2 nM
